Like-named read-outs stand apart in the source and are kept apart here.
Columns and labels:
[1] = PK after single s.c. administration via prefilled dual chamber syringe or separate injections; type: in vivo, LYD pigs; settings: for AUC/Dose [mean ± SD]: single s.c. dose
Protocol: Female cross bred domestic pigs (Danish Landrace, Yorkshire and Duroc—LYD pigs), having a body weight of approximately 80-100 kg, were used for exploring PK profiles.
A full plasma concentration-time profile was obtained from each animal, from pre-dosing to 18 days post dosing.
Plasma was analysed by means of Luminescence Oxygen Channelling Immunoassay (LOCI) and Liquid Chromatography-Mass Spectrometry (LCMS) for semaglutide and cagrilintide, respectively. Non-compartmental pharmacokinetic analysis, using individual plasma concentration-time profiles, was performed.

[2] = Semaglutide solubility in the pH range 3.5-7.5 (FIG. 2); type: physicochemical
Protocol: FIG. 2 depicts semaglutide solubility in the pH range 3.5-7.5. […] Concentrations below ca. 0.6 mM indicate that no more than the analysed amount of semaglutide can be dissolved when the pH is below about 5.9.

[3] = dual chamber syringe versus separate injections

SMILES: CC[C@H](C)[C@H](NC(=O)[C@H](Cc1ccccc1)NC(=O)[C@H](CCC(=O)O)NC(=O)[C@H](CCCCNC(=O)COCCOCCNC(=O)COCCOCCNC(=O)CC[C@H](NC(=O)CCCCCCCCCCCCCCCCC(=O)O)C(=O)O)NC(=O)[C@H](C)NC(=O)[C@H](C)NC(=O)[C@H](CCC(N)=O)NC(=O)CNC(=O)[C@H](CCC(=O)O)NC(=O)[C@H](CC(C)C)NC(=O)[C@H](Cc1ccc(O)cc1)NC(=O)[C@H](CO)NC(=O)[C@H](CO)NC(=O)[C@@H](NC(=O)[C@H](CC(=O)O)NC(=O)[C@H](CO)NC(=O)[C@@H](NC(=O)[C@H](Cc1ccccc1)NC(=O)[C@@H](NC(=O)CNC(=O)[C@H](CCC(=O)O)NC(=O)C(C)(C)NC(=O)[C@@H](N)Cc1cnc[nH]1)[C@@H](C)O)[C@@H](C)O)C(C)C)C(=O)N[C@@H](C)C(=O)N[C@@H](Cc1c[nH]c2ccccc12)C(=O)N[C@@H](CC(C)C)C(=O)N[C@H](C(=O)N[C@@H](CCCNC(=N)N)C(=O)NCC(=O)N[C@@H](CCCNC(=N)N)C(=O)NCC(=O)O)C(C)C [semaglutide, N^6,26-{18-[N-(17-carboxyheptadecanoyl)-L-γ-glutamyl]-10-oxo-3,6,12,15-tetraoxa-9,18-diazaoctadecanoyl}-[8-(2-amino-2-propanoic acid),34-L-arginine]human glucagon-like peptide 1(7-37)]
- AUC/Dose % increase (Co-dosing vs. dual-chamber syringe) [1, 3]: ~13%
- Cmax % increase (Co-dosing vs. dual-chamber syringe) [1, 3]: ~22%
- t½ % increase (Co-dosing vs. dual-chamber syringe) [1, 3]: ~0%
- AUC/Dose [mean ± SD] ([1]; group Dual chamber syringe 2.4/2.4): 1560 ± 229 kg·h/L
- AUC/Dose [mean ± SD] ([1]; group Mono (separate injections per title)): 1380 ± 78.1 kg·h/L
- solubility ([2]; pH above about 5.9, read-out: maximum solubility): > 600 µM
- solubility ([2]; pH below about 5.9, read-out: solubility (dissolved concentration)): < 600 µM
